Experiments:
[1] = tested on: T-Rex 293 cell line SC3 cells having increased expression of androgen receptor protein due to exposure to doxycycline; assay: Cellular growth inhibition, T-Rex 293 SC3 cells with doxycycline (androgen receptor induced), CellTiter-Glo; type: cell-based; settings: T-Rex 293 SC3 cells with 10 ng/mL doxycycline (increased androgen receptor expression), 72 hours
Procedure, shortened: (§1)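 SC3 is a T-Rex 293 clone stably transfected with wild-type androgen receptor in pcDNA4/TO, inducible by 10 ng/mL doxycycline. Cells were grown in phenol red-free DMEM with 10% charcoal-dextran FBS, with or without doxycycline, dosed 24 h after seeding (0.5% DMSO) for 72 h. Viability was read by CellTiter-Glo 2.0 luminescence and GI50 obtained from four-parameter fits.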

[2] = tested on: T-Rex 293 cell line SC3 cells lacking increased expression of androgen receptor protein; assay: Cellular growth inhibition, T-Rex 293 SC3 cells without doxycycline, CellTiter-Glo; type: cell-based; settings: T-Rex 293 SC3 cells not exposed to doxycycline; 72 hours; CellTiter-Glo 2.0
Procedure, shortened: as §1

[3] = tested on: VCaP cells; assay: Cellular growth inhibition assay for VCaP cells, CellTiter-Glo; type: cell-based, human; settings: 72 hours treatment, CellTiter-Glo 2.0
Procedure, shortened: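 GI50 values come from four-parameter curve fits of luminescence data normalized to a zero baseline. Compound, in medium with 0.5% DMSO, was added one day after plating and left for 72 h before CellTiter-Glo 2.0 addition.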

Measured: GI50

Cc1sc2c(c1C)C(c1ccc(CC3CC4(CCN(c5ccc(C(=O)N[C@H]6C(C)(C)[C@H](Oc7ccc(C#N)c(Cl)c7)C6(C)C)cn5)CC4)C3)cc1)=N[C@@H](Cc1ncco1)c1nnc(C)n1-2 [Compound I-143]
< 500 nM: [1] | [2] | [3]

Cc1sc2c(c1C)C(c1ccc(N3CC(N4CCN(c5ncc(C(=O)N[C@H]6C(C)(C)[C@H](Oc7ccc(C#N)c(Cl)c7)C6(C)C)cn5)CC4)C3)cc1)=NC(Cc1ncco1)c1nnc(C)n1-2 (stereo partly drawn) [Compound I-208]
< 500 nM: [1] | [2] | [3]; Homo sapiens, VCaP, 72 h
